In patent US20140314697A1, “Method for Inhibiting Inflammation and Reducing Melanophilin Expression with Glycine Derivatives And the Composition Thereof” (CORUM INC., priority 2013, published 2014):

Experiments:
Raw264.7 cells = assay: Cell viability on Raw264.7; assay type: cell-based, Murine; details: for cell viability on Raw264.7, Entry 2: passage N + 5; for cell viability on Raw264.7, Entry 2 / cell viability on Raw264.7, Entry 3 / cell viability on Raw264.7, Entry 1 / cell viability on Raw264.7, Average: with LPS & IFN-r, Positive Control 100%; for cell viability on Raw264.7, Entry 3: passage N + 6; for cell viability on Raw264.7, Entry 1: passage N + 7
Experimental: 4.4. Cell Viability is Tested by Neutral Red Uptake Experience or MTT Assay.

[1] = test system: Mouse IL-6 secretion, RAW264.7; assay: Mouse IL-6 production in Raw264.7 cells (ELISA); assay type: cell-based; details: for Mouse IL-6 Content, Average / Mouse IL-6 Content, Entry 2 / Mouse IL-6 Content, Entry 3 / Mouse IL-6 Content, Entry 1: Raw264.7, LPS & IFN-r, 24 hours, Positive Control 100%; for Mouse IL-6 Content, Entry 2: passage N + 3; for Mouse IL-6 Content, Entry 3: passage N + 6; for Mouse IL-6 Content, Entry 1: passage N + 7
Experimental: Murine macrophage cell line RAW264.7 (BCRC No. 60001)
Complete Medium (as negative control): DMEM medium with 10% Fetal Bovine Serum
Testing Medium (as positive control): 100 ng/mL LPS and 10 ng/mL IFN-r in Complete Medium
a. Rinse the confluent Raw264.7 cells with sterile D-PBS then trypsinize all cells and perform cell counting.
b. Dilute the cell density to 2E+05/mL and seed 0.1 mL cell liquid (equals to 2E+04 cells) each well in 96-well plate.
c. Incubate Raw264.7 cells at 37° C., 5% CO2 for about 24 hours.
d. Prepared 2× dosing solution of testing material in 2× Testing Medium (means w/ 200 ng/mL ? LPS&20 ng/mL ? IFN-r): 0.8%, 0.4%, 0.2%, 0.1% (Final testing material: 0.4%, 0.2%, 0.1%, 0.05%)
e. […] Add 100 μL controls and testing materials in different concentrations into Raw264.7 cells in 96 well plates. Controls/Test materials should be tested at least three wells.
f. Incubate Raw264.7 cells at 37° C., 5% CO2 for about 24 hours.
g. After incubating for about 24 hours, collect the supernatant of controls and testing materials.
h. Determine the IL-6/MIP-2 content of the supernatant by R&D ELISA kit as mentioned previously.

[2] = test system: Human IL-8 secretion, Normal Human Epidermal Keratinocytes (NHEK); assay: Human IL-8 production in UVB-irradiated NHEK (ELISA); assay type: cell-based; details: for Human IL-8 Content, Average: 40 mJ/cm^2 UVB; for Human IL-8 Content, Average / Human IL-8 Content, Entry 1 / Human IL-8 Content, Entry 2 / Human IL-8 Content, Entry 3: Positive Control 100%; for Human IL-8 Content, Entry 1: passage 2 + 2, 40 mJ/cm^2 UVB; for Human IL-8 Content, Entry 2 / Human IL-8 Content, Entry 3: passage 2 + 3, 40 mJ/cm^2 UVB
Experimental: Normal Human Epidermal Keratinocytes (NHEK) (PromoCell No. C-12008);
Positive Control: 40 mJ/cm^2 UVB,
Negative Control: No UVB irradiation;
a. Rinse the confluent NHEK cells with sterile D-PBS then trypsinize all cells and perform cell counting.
b. Dilute the cell density to 4˜8E+04/mL and seed 0.5 mL cell liquid (equals to 2˜4E+04 cells) each well in 24 well plate.
c. Incubate NHEK cells at 37° C., 5% CO2 until subconfluence.
d. Prepared dosing solution of testing material in Complete Medium: 0.4%, 0.2%, 0.1%, 0.05%.
e. Rinse the NHEK cells with sterile D-PBS and discard rinse buffer. Add 400 μL of controls and testing materials in different concentrations into NHEK cells in 24 well plates.
f. Pre-incubate NHEK cells with testing material at 37° C., 5% CO2 for about 6 hours.
g. After pre-incubating for about 6 hours, wash the NHEK cells with sterile D-PBS for twice then add […] sterile D-PBS for UVB irradiation.
h. UVB intensity is about 2300 μW/cm^2 and UVB energy is about 40 mJ/cm^2.
i. After UVB irradiation, discard sterile D-PBS and wash again. Add 400 μL of the same dosing solution in to each wells.
j. Post-incubate at 37° C., 5% CO2 for about 18 hours.
k. After post-incubating for 18 hours, collect the supernatant of controls and testing materials.
l. Determine the IL-6/IL-8 content of the supernatant by R&D ELISA kit as mentioned previously.
Normal Human Epidermal Keratinocytes (NHEK) were treated by the above-mentioned glycine derivatives for evaluating their anti-inflammatory effect on keratinocytes in this example.

[3] = test system: Mlph (melanophilin) mRNA in B16-F10 cells; assay: Reduction of melanophilin expression on transcriptional level (qPCR); assay type: cell-based, Murine
Experimental: Murine melanoma cell line B16-F10 (BCRC No. 60031)
a. Rinse the confluent B16-F10 cells with sterile D-PBS then trypsinize all cells and perform cell counting.
b. Seeding 2E+06 cells per 10-cm dish.
c. Incubate B16F10 cells at 37° C., 5% CO2 for about 24 hours.
d. Prepared 0.5% testing material in Complete Medium.
e. Discard the medium and add 9 mL Complete Medium and 0.5% testing material into B16-F10 cells in 10-cm dish.
f. Incubate B16-F10 cells at 37° C., 5% CO2 for about 1 hour.
g. After incubating for about 1 hour, discard the supernatant and wash the B16-F10 cells with sterile D-PBS.
h. Add 3 mL Trizol to suspend cells and qPCR test by Welgene Biotech Co., Ltd (outsourcing test).

[4] = 0.5% Ac-Gly-β-Ala, B16-F10, about 1 hour, Control 100%

CC(=O)NCC(=O)NCCC(=O)O [Ac-Gly-β-Ala, 3-(2-acetylamino-acetylamino)-propionic acid]
cell viability on Raw264.7, Entry 2 (Raw264.7 cells; 0.05%): 101%
cell viability on Raw264.7, Entry 3 (Raw264.7 cells; 0.05%): 89%
cell viability on Raw264.7, Entry 1 (Raw264.7 cells; 0.05%): 101%
cell viability on Raw264.7, Average (Raw264.7 cells; 0.05%): 96%
cell viability on Raw264.7, Entry 2 (Raw264.7 cells; 0.10%): 104%
cell viability on Raw264.7, Entry 3 (Raw264.7 cells; 0.10%): 87%
cell viability on Raw264.7, Entry 1 (Raw264.7 cells; 0.10%): 95%
cell viability on Raw264.7, Average (Raw264.7 cells; 0.10%): 97%
cell viability on Raw264.7, Entry 2 (Raw264.7 cells; 0.20%): 98%
cell viability on Raw264.7, Entry 3 (Raw264.7 cells; 0.20%): 91%
cell viability on Raw264.7, Entry 1 (Raw264.7 cells; 0.20%): 90%
cell viability on Raw264.7, Average (Raw264.7 cells; 0.20%): 100%
cell viability on Raw264.7, Entry 2 (Raw264.7 cells; 0.40%): 77%
cell viability on Raw264.7, Entry 3 (Raw264.7 cells; 0.40%): 89%
cell viability on Raw264.7, Entry 1 (Raw264.7 cells; 0.40%): 86%
cell viability on Raw264.7, Average (Raw264.7 cells; 0.40%): 88%
Cell viability (Raw264.7 cells; Raw264.7, all of dosing solution (0.05-0.4%)): higher than 85%
IL-6 production, dose dependence ([1]; 0.05%-0.4%, Raw264.7): dose-dependently inhibited
Mouse IL-6 Content, Average ([1]; 0.05%): 97%
Mouse IL-6 Content, Entry 2 ([1]; 0.05%): 105%
Mouse IL-6 Content, Entry 3 ([1]; 0.05%): 95%
Mouse IL-6 Content, Entry 1 ([1]; 0.05%): 91%
Mouse IL-6 Content, Average ([1]; 0.10%): 86%
Mouse IL-6 Content, Entry 2 ([1]; 0.10%): 96%
Mouse IL-6 Content, Entry 3 ([1]; 0.10%): 78%
Mouse IL-6 Content, Entry 1 ([1]; 0.10%): 85%
Mouse IL-6 Content, Average ([1]; 0.20%): 54%
Mouse IL-6 Content, Entry 2 ([1]; 0.20%): 58%
Mouse IL-6 Content, Entry 3 ([1]; 0.20%): 42%
Mouse IL-6 Content, Entry 1 ([1]; 0.20%): 64%
Mouse IL-6 Content, Average ([1]; 0.40%): 34%
Mouse IL-6 Content, Entry 2 ([1]; 0.40%): 40%
Mouse IL-6 Content, Entry 3 ([1]; 0.40%): 40%
Mouse IL-6 Content, Entry 1 ([1]; 0.40%): 24%
IL-8 production, dose dependence ([2]; 0.05%-0.4%, UVB): inhibited IL-8 production in dose-dependent manner
Human IL-8 Content, Average ([2]; Table 7, 0.05%): 97%
Human IL-8 Content, Entry 1 ([2]; Table 7, 0.05%): 107%
Human IL-8 Content, Entry 2 ([2]; Table 7, 0.05%): 81%
Human IL-8 Content, Entry 3 ([2]; Table 7, 0.05%): 103%
Human IL-8 Content, Average ([2]; Table 7, 0.10%): 80%
Human IL-8 Content, Entry 1 ([2]; Table 7, 0.10%): 76%
Human IL-8 Content, Entry 2 ([2]; Table 7, 0.10%): 70%
Human IL-8 Content, Entry 3 ([2]; Table 7, 0.10%): 93%
Human IL-8 Content, Average ([2]; Table 7, 0.20%): 69%
Human IL-8 Content, Entry 1 ([2]; Table 7, 0.20%): 77%
Human IL-8 Content, Entry 2 ([2]; Table 7, 0.20%): 72%
Human IL-8 Content, Entry 3 ([2]; Table 7, 0.20%): 59%
Human IL-8 Content, Entry 1 ([2]; Table 7, 0.40%): 10%
Human IL-8 Content, Entry 2 ([2]; Table 7, 0.40%): 5%
Human IL-8 Content, Entry 3 ([2]; Table 7, 0.40%): 13%
Mlph mRNA expression level, Average [3, 4]: 55%
Mlph mRNA expression level, Entry 1 [3, 4]: 80%
Mlph mRNA expression level, Entry 2 [3, 4]: 40%
Mlph mRNA expression level, Entry 3 [3, 4]: 46%
effect on Mlph in transcriptional (mRNA) level ([3]; 0.5%, B16-F10): inhibitory effect
